In patent US20220289732A1, “HETEROCYCLIC WDR5 INHIBITORS AS ANTI-CANCER COMPOUNDS” (NOVARTIS AG, priority 2019, published 2022):

What was measured:
WDR5 = WDR5 (Homo sapiens, UniProt P61964); assay: WDR5 HTRF binding assay; conditions: read-out: (a) WDR5 HTRF Pep Val v.1[Inhibitor/IC50]Qualified AC50
Outline: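 In this HTRF displacement format, biotinylated MLL1 WIN peptide (3762-3773, 20 nM) binds WDR5 (6 nM) in 25 mM Hepes pH 7.5 with 100 mM NaCl, 2 mM DTT and 0.1% BSA for 20 min at rt. Detection used streptavidin-APC/anti-His-Eu for 1 hr. IC50 came from dose-response fits of normalized signal; 15 nM biotin-PEG-His peptide served as counter assay.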

[1] = target: wild type MLL1 four-member complex (MLL1-4C) (Homo sapiens, UniProt P61964); assay: MLL1 LC-MS assay (SAH production); format: biochemical; conditions: read-out: (b) MLL LCMS Peptide Val.v.1 Qualified AC50
Outline: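 SAH formation, measured by LC-MS/MS after a TFA quench containing d4-SAH, was normalised to no-compound and no-enzyme controls and fitted to a dose-response curve for IC50. Reactions ran 120 min at rt (pH 8.0 Tris buffer) with final 30 nM MLL1 four-member complex, 2.5 μM SAM and 10 μM biotinylated H3[1-21] peptide, after a 20-min enzyme/SAM-compound preincubation.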

MV4-11 cells = assay: MV4-11 6-day cell growth CTG (CellTiter-Glo) assay; format: cell-based; conditions: Homo sapiens, MV4-11, 144 h, 6 days, read-out: (c) MLL/WDR5 cell proliferation assay//MLL/WDR5 proliferation MV4:11 Qualified AC50
Outline: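 IC50 comes from a dose-response fit of % inhibition relative to DMSO controls, with viable cells measured by CellTiter-Glo luminescence. Compounds were tested over 12 points (1:3, starting at 50 μM final) on MV4-11 cells plated at 300/well and grown 6 days.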

CCOc1cc(CN2CCc3c(CN(C)C4CC4)cc(Cn4ccnc4NC)cc3C2=O)cnc1C#N [Example 26, 5-((5-((cyclopropyl(methyl)amino)methyl)-7-((2-(methylamino)-1H-imidazol-1-yl)methyl)-1-oxo-3,4-dihydroisoquinolin-2(1H)-yl)methyl)-3-ethoxypicolinonitrile]
10 to 1000 nM: IC50 (WDR5) | AC50 [1] | AC50 (MV4-11 cells)

CCOc1cc([C@H](C)N2CCc3c(CN4CCOCC4)cc(Cn4ccnc4NC)cc3C2=O)ncc1F [Example 27, (S)-2-(1-(4-ethoxy-5-fluoropyridin-2-yl)ethyl)-7-((2-(methylamino)-1H-imidazol-1-yl)methyl)-5-(morpholinomethyl)-3,4-dihydroisoquinolin-1(2H)-one]
10 to 1000 nM: IC50 (WDR5) | AC50 [1] | AC50 (MV4-11 cells)

CCOc1cc([C@H](C)N2CCc3c(CN4CC(F)C4)cc(Cn4ccnc4NC)cc3C2=O)ncc1C#N [Example 28, (S)-4-ethoxy-6-(1-(5-((3-fluoroazetidin-1-yl)methyl)-7-((2-(methylamino)-1H-imidazol-1-yl)methyl)-1-oxo-3,4-dihydroisoquinolin-2(1H)-yl)ethyl)nicotinonitrile]
10 to 1000 nM: IC50 (WDR5) | AC50 [1] | AC50 (MV4-11 cells)

CNc1nccn1Cc1cc(CN(C)C)c2c(c1)C(=O)N([C@@H](C)c1cnc(F)c(OC)c1)CC2 [Example 29, (S)-5-((dimethylamino)methyl)-2-(1-(6-fluoro-5-methoxypyridin-3-yl)ethyl)-7-((2-(methylamino)-1H-imidazol-1-yl)methyl)-3,4-dihydroisoquinolin-1(2H)-one]
10 to 1000 nM: IC50 (WDR5) | AC50 [1] | AC50 (MV4-11 cells)

CNc1nccn1Cc1cc(CN2CC(F)C2)c2c(c1)C(=O)N(Cc1cc(OC)c(F)cn1)CC2 [Example 30, 2-((5-fluoro-4-methoxypyridin-2-yl)methyl)-5-((3-fluoroazetidin-1-yl)methyl)-7-((2-(methylamino)-1H-imidazol-1-yl)methyl)-3,4-dihydroisoquinolin-1(2H)-one]
10 to 1000 nM: IC50 (WDR5) | AC50 [1] | AC50 (MV4-11 cells)

CNc1nccn1Cc1cc(CN2CC(OC)C2)c2c(c1)C(=O)N([C@@H](C)c1cc(OC)c(F)cn1)CC2 [Example 31, (S)-2-(1-(5-fluoro-4-methoxypyridin-2-yl)ethyl)-5-((3-methoxyazetidin-1-yl)methyl)-7-((2-(methylamino)-1H-imidazol-1-yl)methyl)-3,4-dihydroisoquinolin-1(2H)-one]
10 to 1000 nM: IC50 (WDR5) | AC50 [1] | AC50 (MV4-11 cells)

CCOc1cc([C@H](C)N2CCc3c(CN(C)C)cc(Cn4ccnc4NC)cc3C2=O)cnc1C#N [Example 32, (S)-5-(1-(5-((dimethylamino)methyl)-7-((2-(methylamino)-1H-imidazol-1-yl)methyl)-1-oxo-3,4-dihydroisoquinolin-2(1H)-yl)ethyl)-3-ethoxypicolinonitrile]
10 to 1000 nM: IC50 (WDR5) | AC50 [1] | AC50 (MV4-11 cells)

CNc1nccn1Cc1cc(CN2CC(F)C2)c2c(c1)C(=O)N(Cc1cnc(F)c(OC)c1)CC2 [Example 33, 2-((6-fluoro-5-methoxypyridin-3-yl)methyl)-5-((3-fluoroazetidin-1-yl)methyl)-7-((2-(methylamino)-1H-imidazol-1-yl)methyl)-3,4-dihydroisoquinolin-1(2H)-one]
10 to 1000 nM: IC50 (WDR5) | AC50 [1] | AC50 (MV4-11 cells)

CNc1nccn1Cc1cc(CN2CC(F)(F)C2)c2c(c1)C(=O)N([C@@H](C)c1cnc(F)c(OC)c1)CC2 [Example 34, (S)-5-((3,3-difluoroazetidin-1-yl)methyl)-2-(1-(6-fluoro-5-methoxypyridin-3-yl)ethyl)-7-((2-(methylamino)-1H-imidazol-1-yl)methyl)-3,4-dihydroisoquinolin-1(2H)-one]
10 to 1000 nM: IC50 (WDR5) | AC50 [1] | AC50 (MV4-11 cells)

CNc1nccn1Cc1cc(CN(C)CC(F)F)c2c(c1)C(=O)N([C@@H](C)c1cc(OC)c(F)cn1)CC2 [Example 35, (S)-5-(((2,2-difluoroethyl)(methyl)amino)methyl)-2-(1-(5-fluoro-4-methoxypyridin-2-yl)ethyl)-7-((2-(methylamino)-1H-imidazol-1-yl)methyl)-3,4-dihydroisoquinolin-1(2H)-one]
10 to 1000 nM: IC50 (WDR5) | AC50 [1] | AC50 (MV4-11 cells)

CNc1nccn1Cc1cc(CN2CC[C@@H](OC)C2)c2c(c1)C(=O)N([C@@H](C)c1cc(OC)c(F)cn1)CC2 [Example 36, 2-((S)-1-(5-fluoro-4-methoxypyridin-2-yl)ethyl)-5-(((R)-3-methoxypyrrolidin-1-yl)methyl)-7-((2-(methylamino)-1H-imidazol-1-yl)methyl)-3,4-dihydroisoquinolin-1(2H)-one]
10 to 1000 nM: IC50 (WDR5) | AC50 [1] | AC50 (MV4-11 cells)

CCOc1cc([C@H](C)N2CCc3c(CN4CC[C@H](F)C4)cc(Cn4ccnc4NC)cc3C2=O)ncc1F [Example 37, 2-((S)-1-(4-ethoxy-5-fluoropyridin-2-yl)ethyl)-5-(((S)-3-fluoropyrrolidin-1-yl)methyl)-7-((2-(methylamino)-1H-imidazol-1-yl)methyl)-3,4-dihydroisoquinolin-1(2H)-one]
10 to 1000 nM: IC50 (WDR5) | AC50 [1] | AC50 (MV4-11 cells)

CNc1nccn1Cc1cc(CN2CC(F)(F)C2)c2c(c1)C(=O)N(Cc1cc(OC)c(F)cn1)CC2 [Example 38, 5-((3,3-difluoroazetidin-1-yl)methyl)-2-((5-fluoro-4-methoxypyridin-2-yl)methyl)-7-((2-(methylamino)-1H-imidazol-1-yl)methyl)-3,4-dihydroisoquinolin-1(2H)-one]
10 to 1000 nM: IC50 (WDR5) | AC50 [1] | AC50 (MV4-11 cells)

CCOc1cc([C@H](C)N2CCc3c(CN4CC(F)C4)cc(Cn4ccnc4NC)cc3C2=O)ncc1F [Example 39, (S)-2-(1-(4-ethoxy-5-fluoropyridin-2-yl)ethyl)-5-((3-fluoroazetidin-1-yl)methyl)-7-((2-(methylamino)-1H-imidazol-1-yl)methyl)-3,4-dihydroisoquinolin-1(2H)-one]
10 to 1000 nM: IC50 (WDR5) | AC50 [1] | AC50 (MV4-11 cells)

CCOc1cc([C@H](C)N2CCc3c(CN4CC(F)(F)C4)cc(Cn4ccnc4NC)cc3C2=O)ncc1C#N [Example 40, (S)-6-(1-(5-((3,3-difluoroazetidin-1-yl)methyl)-7-((2-(methylamino)-1H-imidazol-1-yl)methyl)-1-oxo-3,4-dihydroisoquinolin-2(1H)-yl)ethyl)-4-ethoxynicotinonitrile]
10 to 1000 nM: IC50 (WDR5) | AC50 [1] | AC50 (MV4-11 cells)

CCOc1cc([C@H](C)N2CCc3c(CN4CC(F)C4)cc(Cn4ccnc4NC)cc3C2=O)cnc1C#N [Example 41, (S)-3-ethoxy-5-(1-(5-((3-fluoroazetidin-1-yl)methyl)-7-((2-(methylamino)-1H-imidazol-1-yl)methyl)-1-oxo-3,4-dihydroisoquinolin-2(1H)-yl)ethyl)picolinonitrile]
10 to 1000 nM: IC50 (WDR5) | AC50 [1] | AC50 (MV4-11 cells)

CNc1nccn1Cc1cc(CN2CC(F)C2)c2c(c1)C(=O)N([C@@H](C)c1cc(OC)c(F)cn1)CC2 [Example 42]
10 to 1000 nM: IC50 (WDR5) | AC50 [1] | AC50 (MV4-11 cells)
